Reference: US20040191763A1, “HBV mutations associated with reduced susceptibility to adefovir” (priority 2002, published 2004)
Where two headings read alike, the source gives them in different places.

Experiments:
serum HBV DNA [1] = conditions: ADV 10 mg daily, HBeAg positive patients; cited from earlier work
serum HBV DNA [2] = experiment: Phase 3 clinical study GS-98-438, HBeAg negative chronic hepatitis B patients; assay type: in vivo, human
Procedure: The median serum HBV DNA levels declined by 3.5 and 3.9 log10 copies/mL from baseline to week 48 in the ADV 10 mg dose groups in HBeAg positive (Study GS-98-437) and in HBeAg negative (Study GS-98-438) chronic hepatitis B patients, respectively.
Adefovir resistance surveillance was performed in a blinded manner in HBeAg negative chronic hepatitis B patients treated for 96 weeks in a Phase 3 double-blind, randomized, placebo-controlled clinical study (GS-98-438) of adefovir dipivoxil 10 mg (ADV). The analysis included 79 patients who received ADV 10 mg daily for the first 48 weeks and were randomized to also receive ADV 10 mg during the second 48 weeks.
The reverse transcriptase (RT) domain of the HBV polymerase gene (rt1 to rt344) was sequenced for HBV DNA extracted from baseline and week 96 serum samples (or the last on-study sample) for the 79 patients treated continuously with ADV for 96 weeks if the samples had detectable serum HBV DNA (≧1000 copies/mL by Roche Amplicor™ PCR assay) at the time points tested.
Study GS-98-438 is a randomized, double-blind, placebo-controlled Phase 3 clinical study of the safety and efficacy of ADV for the treatment of patients with HBeAg negative/anti-HBe positive/HBV DNA positive chronic hepatitis B. A total of 184 patients received at least one dose of study medication during the first 48 weeks (n=61 and 123 for the placebo and ADV 10 mg groups, respectively). During the second 48 weeks, all placebo patients switched to ADV 10 mg daily while the ADV-treated patients were re-randomized to either continue ADV or receive placebo at a 2:1 ratio. Accordingly, all patients who received at least one dose of study drug during the second 48 weeks are classified into three groups: PLB-ADV (n=60), ADV-ADV (n=79), and ADV-PLB (n=40).
A virology substudy of Study GS-98-438 included all patients in the ADV 10 mg-ADV 10 mg group (n=79). The RT domain of the HBV polymerase gene from banked serum samples from these patients was genotypically analyzed at baseline, and either at week 96, or upon early termination during the second 48 weeks.
If the week 96 serum HBV DNA value was not available for a patient, the closest serum HBV DNA value prior to week 96 was used. All week 96 and the last on-drug samples are referred to as week 96 samples hereafter. Note that Roche Molecular Systems raised the lower limit of quantification of the HBV DNA PCR assay from 400 copies/mL to 1,000 copies/mL after Gilead completed the week 48 analyses for study 438.

serum HBV DNA [3] = conditions: ADV 10 mg daily, HBeAg negative patients; cited from earlier work
[4] = test system: rtK241E+rtK318Q mutant HBV; experiment: Whole HBV genome cell culture drug susceptibility assay, rtK241E+rtK318Q patient-derived clones; conditions: adefovir, patient 0370-3503, rtK241E + rtK318Q
Procedure: Drug susceptibility of patient-derived clones was analyzed by transient transfection into HepG2 cells.
To investigate if these conserved site mutations conferred resistance to adefovir, adefovir susceptibility of HBV isolates derived from the above five patients was evaluated using a whole HBV genome cell culture assay as described above.

rtN236T mutant HBV = experiment: Whole HBV genome cell culture drug susceptibility assay, rtN236T patient-derived clones; assay type: cell-based, hepatitis B virus; conditions: for IC50 Fold Change (Week96/Baseline): adefovir; for susceptibility of the rtN236T mutant (in words): in vitro
[5] = test system: rtA181T mutant lab HBV strain (ayw); experiment: Adefovir susceptibility of standard HBV lab strain carrying rtA181T; assay type: cell-based, hepatitis B virus
From the text: (§1) One patient (0454-2506) with the rtN236T mutation also developed a second conserved site mutation rtA181T at week 96. However, all week 96 isolates derived from the patient encoding both rtN236T and rtA181T were replication deficient in vitro; the reason for this is unclear. To assess the adefovir sensitivity of HBV containing both rtN236T and rtA181Tmutations, an artificial construct was obtained by modifying an existing patient-derived HBV clone. The rtA181T mutation was introduced by site-directed mutagenesis into replicating HBV clones from patient 0454-2506 that already encoded rtN236T. The resulting double mutants were replication competent and were used for adefovir susceptibility testing. […] The rtA181T mutation was also introduced into a standard HBV lab strain (genotyped, ayw) to assess the individual contribution of the rtA181T mutation.

[6] = test system: wild-type lab HBV strain (ayw); experiment: Adefovir susceptibility of standard HBV lab strain, wild-type; assay type: cell-based, hepatitis B virus
From the text: as §1

[7] = test system: wild-type HBV (baseline patient-derived clones); experiment: Whole HBV genome cell culture drug susceptibility assay, baseline wild-type patient-derived clones; assay type: cell-based, hepatitis B virus
[8] = test system: rtN236T+rtA181T double mutant HBV; experiment: Adefovir susceptibility of rtN236T+rtA181T double mutant made by site-directed mutagenesis of patient-derived clone; assay type: cell-based, hepatitis B virus
From the text: as §1

rtA181V mutant HBV = experiment: Whole HBV genome cell culture drug susceptibility assay, rtA181V patient-derived clones; assay type: cell-based, hepatitis B virus; conditions: for IC50: Hepatitis B virus, HepG2, 168 h, HepG2, 7 days; for IC50 Fold Change (Week96/Baseline): adefovir
From the text: . The rtA181V mutation appears to confer a low degree of reduced susceptibility to adefovir relative to the adefovir-resistant rtN236T mutation (7- to 14-fold resistance to adefovir in vitro). […] In contrast, serum HBV DNA in the other patient (0624-1517) remained suppressed below 1000 copies/mL after a period of treatment interruption during which this mutation was detected (FIG. 2). […] The clinical significance of the rtA181V mutation is unclear based on the in vitro drug susceptibility data and the disparate clinical profiles of the two patients, although as noted it would have diagnostic utility for HBV infection.

[9] = molecular target: recombinant HBV polymerase (Hepatitis B virus genotype D subtype ayw, UniProt P03156); conditions: competitive with respect to dATP; read-out: inhibition constant (Ki); cited from earlier work
recombinant HBV polymerase, sequence (P03156 whole entry): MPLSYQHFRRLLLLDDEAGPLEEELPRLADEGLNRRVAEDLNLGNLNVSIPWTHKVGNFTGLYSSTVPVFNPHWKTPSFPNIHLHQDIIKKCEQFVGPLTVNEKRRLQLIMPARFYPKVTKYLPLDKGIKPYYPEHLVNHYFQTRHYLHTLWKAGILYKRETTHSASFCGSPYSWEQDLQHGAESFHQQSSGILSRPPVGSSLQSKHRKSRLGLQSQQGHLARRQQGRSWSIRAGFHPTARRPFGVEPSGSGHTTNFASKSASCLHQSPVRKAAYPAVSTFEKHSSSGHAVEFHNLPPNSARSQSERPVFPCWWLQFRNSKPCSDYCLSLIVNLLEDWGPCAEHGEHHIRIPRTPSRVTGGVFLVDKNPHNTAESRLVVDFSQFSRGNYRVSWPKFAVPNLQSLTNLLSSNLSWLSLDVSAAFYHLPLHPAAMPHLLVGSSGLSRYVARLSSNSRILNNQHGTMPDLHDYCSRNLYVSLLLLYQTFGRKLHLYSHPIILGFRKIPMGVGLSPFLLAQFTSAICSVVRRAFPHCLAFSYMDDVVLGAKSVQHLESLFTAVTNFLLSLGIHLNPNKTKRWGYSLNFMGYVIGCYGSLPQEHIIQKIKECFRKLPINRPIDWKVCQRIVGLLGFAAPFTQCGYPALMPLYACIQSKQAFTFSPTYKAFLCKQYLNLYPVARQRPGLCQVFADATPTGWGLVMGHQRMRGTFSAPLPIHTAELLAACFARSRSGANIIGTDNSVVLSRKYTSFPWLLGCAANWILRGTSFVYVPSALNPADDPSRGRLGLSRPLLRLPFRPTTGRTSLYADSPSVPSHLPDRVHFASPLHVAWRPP

[10] = Hepatitis B virus, read-out: IC50 rtN23T Mutant, patient-derived HBV strain carrying rtN236T (Table 7)
[11] = patient-derived HBV strain carrying rtN236T (Table 7)
[12] = Hepatitis B virus, read-out: IC50 Wild-type, patient-derived HBV strain, wild-type (Table 7)
[13] = patient-derived HBV strain carrying rtN236T (Table 7), read-out: IC50 rtN23T Mutant
[14] = patient-derived HBV strain, wild-type (Table 7), read-out: IC50 Wild-type

CC(C)(C)C(=O)OCOP(=O)(COCCn1cnc2c(N)ncnc21)OCOC(=O)C(C)(C)C [ADV, adefovir dipivoxil]
median serum HBV DNA decline from baseline to week 48 (serum HBV DNA [1]): 3.5 log10 copies/mL | serum HBV reduction from baseline after initiation of therapy (serum HBV DNA [2]; both patients who developed rtN236T (0626-1537, 0454-2506)): less than 2 log10 copies/mL | patients with serum HBV DNA levels <1000 copies/mL at week 96 (or last on-study visit) (serum HBV DNA [2]; of 79 patients, ADV 10 mg daily for 96 weeks): 58 patients | reduction in serum HBV DNA (serum HBV DNA [2]; patient 0370-3503 (rtK241E+rtK318Q), week 96): > 5 log10 | serum HBV DNA (serum HBV DNA [2]; patient 0370-3503, week 96): 3.1 log10 copies/mL | serum HBV DNA (serum HBV DNA [2]; patient 0370-3503, week 156): 3.6 log10 copies/mL | median serum HBV DNA decline from baseline to week 48 (serum HBV DNA [3]): 3.9 log10 copies/mL

Nc1ncnc2c1ncn2CCOCP(=O)(O)O [Adefovir, adefovir]
IC50 Fold Change (Week96/Baseline) [4]: 0.9 fold | IC50 Fold Change (Week96/Baseline) ([4]; listed as adefovir): less than 0.9 fold | IC50 (rtN236T mutant HBV; Hepatitis B virus, HepG2, 168 h, read-out: Adefovir IC50 Week 96, patient 0454-2506, week 96 clones with single rtN236T, HepG2, 7 days): 1550 ± 910 nM | IC50 (rtN236T mutant HBV; Hepatitis B virus, HepG2, 168 h, read-out: Adefovir IC50 Week 96, patient 0626-1537, week 96 rtN236T clones, HepG2, 7 days): 3640 ± 2780 nM | IC50 (rtN236T mutant HBV; [10]): 1470 nM | IC50 Fold Change (Week96/Baseline) (rtN236T mutant HBV; patient 0454-2506, single rtN236T): 7.3 fold | IC50 Fold Change (Week96/Baseline) (rtN236T mutant HBV; patient 0626-1537, rtN236T): 13.8 fold | IC50 Fold Change (rtN236T/Wild-type) (rtN236T mutant HBV; [11]): 9.6 fold | IC50 ([5]; Hepatitis B virus): 240 ± 30 nM | IC50 Fold Change from Wild-Type ([5]; adefovir): 1.3 fold | IC50 ([6]; Hepatitis B virus, lab HBV strain, wild-type): 190 ± 30 nM | IC50 Fold Change from Wild-Type ([6]; adefovir, lab HBV strain wild-type, reference): 1 fold | IC50 ([7]; Hepatitis B virus, HepG2, 168 h, read-out: Adefovir IC50 Baseline, patient 0370-3503, baseline clones, HepG2, 7 days): 160 ± 10 nM | IC50 ([7]; Hepatitis B virus, HepG2, 168 h, read-out: Adefovir IC50 Baseline, patient 0454-2506, baseline wild-type clones, HepG2, 7 days): 210 ± 10 nM | IC50 ([7]; Hepatitis B virus, HepG2, 168 h, read-out: Adefovir IC50 Baseline, patient 0624-1517, baseline clones, HepG2, 7 days): 210 ± 70 nM | IC50 ([7]; Hepatitis B virus, HepG2, 168 h, read-out: Adefovir IC50 Baseline, patient 0624-1564, baseline clones, HepG2, 7 days): 210 ± 10 nM | IC50 ([7]; Hepatitis B virus, HepG2, 168 h, read-out: Adefovir IC50 Baseline, patient 0626-1537, baseline clones, HepG2 transient transfection, 7 days): 260 ± 170 nM | IC50 [7, 12]: 150 nM | IC50 Fold Change from Wild-Type ([7]; adefovir, patient 0454-2506 wild-type (baseline), reference): 1 fold | IC50 ([8]; Hepatitis B virus, patient 0454-2506 derived clone, rtN236T + rtA181T (rtA181T introduced by site-directed mutagenesis)): 530 ± 260 nM | IC50 Fold Change from Wild-Type ([8]; adefovir, patient 0454-2506 derived, rtN236T + rtA181T): 2.5 fold | IC50 (rtA181V mutant HBV; read-out: Adefovir IC50 Week 96, patient 0624-1517, week 96 rtA181V clones): 520 ± 110 nM | IC50 (rtA181V mutant HBV; read-out: Adefovir IC50 Week 96, patient 0624-1564, week 96 rtA181V clones): 620 ± 290 nM | IC50 Fold Change (Week96/Baseline) (rtA181V mutant HBV; patient 0624-1517, rtA181V): 2.5 fold | IC50 Fold Change (Week96/Baseline) (rtA181V mutant HBV; patient 0624-1564, rtA181V): 3.0 fold

C=C1[C@H](CO)[C@@H](O)C[C@@H]1n1cnc2c(=O)[nH]c(N)nc21 [Entecavir, entecavir]
IC50 (rtN236T mutant HBV; [10]): 0.26 nM | susceptibility of the rtN236T mutant (in words) (rtN236T mutant HBV): remained susceptible | IC50 Fold Change (rtN236T/Wild-type) (rtN236T mutant HBV; [11]): 0.67 fold | IC50 [7, 12]: 0.39 nM

Cc1cn([C@@H]2C[C@@H](O)[C@H](CO)O2)c(=O)[nH]c1=O [L-dT]
susceptibility of the rtN236T mutant (in words) (rtN236T mutant HBV): remained susceptible | IC50 Fold Change (rtN236T/Wild-type) (rtN236T mutant HBV; [11]): 2.4 fold | IC50 (rtN236T mutant HBV; [13]): 330 nM | IC50 [7, 14]: 140 nM

Nc1ccn([C@@H]2CS[C@H](CO)O2)c(=O)n1 [Lamivudine, lamivudine]
IC50 (rtN236T mutant HBV; [10]): 70 nM | IC50 (rtN236T mutant HBV; Hepatitis B virus, read-out: Lamivudine IC50 Week 96, patient 0454-2506, week 96 clones with single rtN236T): 70 nM | lamivudine IC50 change (rtN236T mutant HBV; rtN236T mutant in vitro): ≤ 3.5 fold

COc1ccc(Sc2nc(N)nc3c2ncn3CCOCP(=O)(OCC(F)(F)F)OCC(F)(F)F)cc1 [MCC-478]
IC50 (rtN236T mutant HBV; [10]): 250 nM | IC50 Fold Change (rtN236T/Wild-type) (rtN236T mutant HBV; [11]): 8.6 fold | IC50 [7, 12]: 30 nM

C[C@H](Cn1cnc2c(N)ncnc21)OCP(=O)(O)O [Tenofovir, tenofovir]
IC50 Fold Change (rtN236T/Wild-type) (rtN236T mutant HBV; [11]): 4.2 fold | IC50 (rtN236T mutant HBV; [13]): 550 nM | IC50 [7, 14]: 130 nM

Nc1ncnc2c1ncn2CCOCP(=O)(O)OP(=O)(O)OP(=O)(O)O [adefovir diphosphate]
Ki [9]: 100 nM
